The values below come from patent US4282111A (Betz Laboratories, Inc., priority 1980, dated 1981).

Each structure is given as a SMILES string.

Data set [1] in a line: oxygen scavenging in stainless steel hot water flow system at elevated temperature and pressure (Example 1). The settings on record: for % O2 Removed: 78±3°C, 4±1 psig, 4±0.2 min contact, feedwater: hydrazine 96 ppm pH 10.3 O2 1.8 ppm (average of 9 runs), hydroquinone 100 ppm pH 8.9 O2 2.3 ppm, p-phenylenediamine 69 ppm pH 10.9 O2 2.0 ppm, o-phenylenediamine 58 ppm pH 10.2 O2 2.0 ppm, resorcinol 90 ppm pH 9.8 O2 1.8 ppm, values below 20% may be artifacts; for oxygen scavenging in the test water (in words): conclusion from TABLE 1. How it is done: In a first series of tests, the oxygen scavenging efficacies of various materials were evaluated under conditions of elevated temperature and pressure. The test apparatus used was essentially a stainless steel hot water flow system equipped with appropriate monitoring instrumentation. Demineralized feedwater, adjusted to the appropriate pH and initial dissolved oxygen level (controlled by nitrogen sparging), was pumped from a reservoir at ambient temperature into a once-through heater. Temperature was monitored continuously by means of thermocouples at several locations along the length of the flow tubing. A solution containing the oxygen scavenger test material was loaded into a pump driven syringe and fed continuously to the heated flow stream through a port containing a stainless steel ribbon mixing baffle. The feedwater containing dissolved oxygen and the test material then traversed the flow tubing via a by-pass comprising an additional length of coiled tubing. Contact (or reaction) time of the test material and dissolved oxygen was governed by the choice of coil length. The tendency of the temperature to drop during residence in the coiled tubing was offset by the use of thermostatted heating tapes which maintained the temperature in this tubing at 78°±3°C. Upon exiting the coiled tubing, the stream flowed through a sample cooler to render the temperature of the liquid compatible with the operating range of a membrane-type dissolved oxygen probe. The cooled liquid was analyzed for dissolved oxygen via a D.O. flow cell, and pH was potentiometrically monitored in the flow tube immediately downstream of the D.O. probe. Outputs of the temperature, pH and dissolved oxygen probes during operation were monitored via strip chart recorders. The final destination of the reaction mixture was a reservoir which could be drained for analysis of reaction products, if desired.
Temperature in the system could be maintained at 78°±3° C. under 4±1 psig. Residence time of the feedwater in the flow tube from chemical feed point to D.O. flow cell outlet was 4±0.2 minutes. Approximately 3.5 minutes of this total was spent in a 40' length of 0.402 inch i.d. coiled tubing. Entry into and residence in the sample cooler accounted for 0.5 minute of the total contact time.
According to an article by J. W. Cohn and R. E. Powell, Jr., J. Amer.
The test solutions were prepared by initially mixing 10 grams of test material and 90 grams of demineralized water in glass bottles and allowing the mixture to remain in a shaker for several hours. If complete dissolution for a given material was observed after shaking, the pH of the solution was measured. When the pH of the solution was below 10.0, 7 N sodium hydroxide was added dropwise until this value was reached. The quantity of added sodium hydroxide was recorded and later used in corrections for the active concentration of the solution. When the pH value of a stock solution was above pH 10.0 without requiring the addition of caustic, the solution was not further modified.
Results of these tests are reported in TABLE 1 below in terms of percent oxygen removed from the test stream. The precision of the initial and final dissolved oxygen values reported is approximately ±10%. […] The experimental uncertainties decrease with increasing values of percent dissolved oxygen removal.

Data set [2] in a line: oxygen scavenging in feedwater of a working boiler (Example 2). On the procedure: In order to compare the performance of hydroquinone with that of hydrazine under field-type conditions, a series of experiments were conducted on the feedwater of a working boiler. The test materials were fed to the deaerator storage tank, and the resultant change, if any, in dissolved oxygen level was measured on a sample flowing from the feedwater line through a membrane-type dissolved oxygen probe.
During the tests, a relatively wide range of experimental conditions was encountered among the test parameters, reflecting the difficulty of attempting to obtain precise data during experiments performed on a working boiler.
In order to provide some point of reference for judging oxygen scavenging efficacies while taking into account the diverse conditions experienced on a daily basis, hydrazine control runs were performed, whenever possible, under feedwater and boiler conditions similar to those encountered during testing of other test materials. The hydrazine control runs are reported below in TABLE 3 also in terms of % oxygen removal.

For data set [3] the following is noted: for % O2 Removed, 1 Minute: hydroquinone: pH 8.6, 22.5 °C, 0.94 mol/mol O2, initial O2 7.7 ppm.
Text: The test apparatus basically consisted of a 1 liter three-necked flask fitted with a dissolved oxygen probe and a pH electrode. The intent of this apparatus was to show reaction kinetics differences rather than precise measurements (within seconds) of reaction times.
The flask was filled with deionized water which had been stripped of some dissolved oxygen by bubbling nitrogen through a diffuser stone. The pH was adjusted to the desired level with sodium hydroxide. The flask was sealed with a rubber septum, the dissolved oxygen probe and an inlet stopper. A magnetic stirrer bar was left in the flask for mixing. The mixer was turned on, and dissolved oxygen and temperature readings were recorded until the dissolved oxygen reached a constant value. Next, the appropriate quantity of additive was injected through the septum using a hypodermic syringe. The initial mole ratio of treatment to dissolved oxygen was determined by weighing feed chemical and measuring the oxygen concentration. […] Dissolved oxygen and temperature readings were then taken at appropriate time intervals.
A further data set relates to test rats. The settings on record: conclusion from TABLE 4; cited from earlier work.
For data set [4] the following is noted: background, cited from earlier work.
Data set [5] can be described thus: thermal decomposition of aqueous solutions in autoclaves (Example 5). The settings on record: hydrazine 60 ppm, 435 psig, 450 °F, 4 hours.
Experimental: The aqueous solutions (approximately 50-60 ppm in demineralized water) were subjected to specified temperature and pressure conditions for 4 hours prior to chemical analysis.
The conditions of data set [6]: Cohn and Powell, J. Amer. Chem. Soc., 76, 2568 (1954); cited from earlier work.
For data set [7] the following is noted: low temperatures such as room temperature; background; cited from earlier work.
For data set [8] the following is noted: background; cited from earlier work.
Setting [9] is: hydrazine: pH 9.2, 26.5 °C, 10.5 mol/mol O2, initial O2 0.87 ppm.

`Nc1ccccc1N` [o-phenylenediamine]: in data set [1], the “% O2 Removed” value stood at 10% and the “oxygen scavenging in the test water (in words)” value (from here on “oxygen scavenging … (in words)”) is listed as “did not work as oxygen scavengers”.
For `Oc1ccc(O)cc1` [hydroquinone], the “% O2 Removed” value in [1] was found to be 97%; in data set [2] (1.9 ppm actives, pH 8.4, steam load 15 (1000 lbs./hr.), initial O2 8.0 ppb) it was 88%; in data set [2] (1.9 ppm actives, pH 8.4, steam load 15 (1000 lbs./hr.), initial O2 10.0 ppb) it was 90%. In [1], the “oxygen scavenging … (in words)” value was “at least equivalent to, if not better than, hydrazine”. Further, in data set [2] (conclusion from TABLES 2 and 3), the “efficacy in treating boiler feedwater (in words)” value is “compared favorably with hydrazine”. For the same compound, the “% O2 Removed, 1 Minute” value in data set [3] (setting [9]) was determined as 29%. In [3] (conclusion from TABLE 5, compared to hydrazine), the “reactivity at low temperature with oxygen (in words)” value is given as “superiority of hydroquinone, as compared to hydrazine”. Further, the “toxicity compared to hydrazine (in words)” value in the data set with test rats was “significantly less toxic as compared to hydrazine”.
For the compound `O=S([O-])[O-].[Na+].[Na+]` [sodium sulfite], the “decomposition in the boiler (in words)” value in [4] (at high pressures) is “decomposes in the boiler to form sulfur dioxide and hydrogen sulfide”.
On to `Oc1cccc(O)c1` [resorcinol], for which, in data set [1], the “% O2 Removed” value stood at 0% and the “oxygen scavenging … (in words)” value is recorded as “did not work as oxygen scavengers”.
`NN` [hydrazine]: in data set [5], the “% Decomposition” value was determined as 20%. For the same compound, the “% O2 Removed” value in data set [1] stood at 91 ± 4%; in data set [2] (hydrazine control run 1: 1.6 ppm actives, pH 8.8, steam load 11 (1000 lbs./hr.), initial O2 13.0 ppb), 69%; in [2] (hydrazine control run 2: 1.1 ppm actives, pH 9.4, steam load 15 (1000 lbs./hr.), initial O2 4.0 ppb), 50%; in data set [2] (hydrazine control run 3: 1.2 ppm actives, pH 8.6, steam load 15 (1000 lbs./hr.), initial O2 6.0 ppb) it was 60%; in data set [2] (hydrazine control run 4: 1.0 ppm actives, pH 8.8, steam load 15 (1000 lbs./hr.), initial O2 5.8 ppb), 55%; in data set [2] (hydrazine control run 5: 0.8 ppm actives, pH 9.4, steam load 11 (1000 lbs./hr.), initial O2 3.5 ppb) it was 31%. Also, the “% O2 Removed” value in [2] (hydrazine control run 6: 1.6 ppm actives, pH 9.6, steam load 14 (1000 lbs./hr.), initial O2 4.0 ppb) worked out at 30%. In addition, in [6], the “pH of maximum oxygen scavenging efficacy in solution” value was 10.0-10.5. Besides, the “temperature above which it decomposes” value in [4] (to nitrogen, hydrogen and ammonia) is listed as “Above 400 °F”. For the same compound, in data set [7], the “rate of hydrazine-oxygen reaction (in words)” value is given as “very slow at low temperatures”. The “% O2 Removed, 1 Minute” value in data set [3] (setting [9]) came to 1%. Also, the “% O2 Removed, 5 Minutes” value in [3] (5 minutes, hydrazine: pH 9.2, 26.5 °C, 10.5 mol/mol O2, initial O2 0.87 ppm) is 2%. Moreover, the “toxicity (in words)” value in data set [8] is “extreme toxicity and carcinogenicity”.
As for `Nc1ccc(N)cc1` [p-phenylenediamine], in [1], the “% O2 Removed” value is listed as 35% and the “oxygen scavenging … (in words)” value was “did not work as oxygen scavengers”.
